Test system: up to 32 different microorganisms
Experiment: in vitro antibacterial activity (MIC), agar dilution on Brain Heart Infusion (BHI) agar with Steers replicator
Format: cell-based
Settings: unit assumed
Method in brief: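 Up to 32 strains were replicator-inoculated (1:100, or 1:10 for Micrococcus and Streptococcus) onto BHI agar plates holding serial compound dilutions and kept 20-24 h at 35-37° C. Plates were read visually against drug-free growth controls, with erythromycin A run alongside; MIC was the lowest concentration giving no growth, slight haze or sparse colonies.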

Compound	MIC (organism code AA)	MIC (organism code BB)	MIC (organism code CC)	MIC (organism code DD)	MIC (organism code EE)	MIC (organism code FF)	MIC (organism code GG)	MIC (organism code HH)	MIC (organism code II)	MIC (organism code JJ)	MIC (organism code KK)	MIC (organism code LL)	MIC (organism code MM)	MIC (organism code NN)	MIC (organism code OO)	MIC (organism code PP)	MIC (organism code QQ)	MIC (organism code RR)	MIC (organism code SS)	MIC (organism code TT)	other results
CCC1OC(=O)C(C)C(=O)C(C)C(OC2OC(C)CC(N(C)C)C2O)C(C)(OCC=Cc2cccc(-c3ccccc3)c2)CC(C)C(=O)C(C)C2NC(=O)OC12C (stereo not drawn) [Example 280, Compound of Formula (IX): L is CO, T is NH2, R is —CH2CH═CH-(3-biphenyl)]	0.39 µg/mL	0.39 µg/mL	50 µg/mL	0.39 µg/mL	0.39 µg/mL	0.39 µg/mL	50 µg/mL	0.39 µg/mL	0.2 µg/mL	0.05 µg/mL	0.05 µg/mL	0.1 µg/mL	12.5 µg/mL	0.39 µg/mL	0.1 µg/mL	0.78 µg/mL	> 100 µg/mL	1.56 µg/mL	> 100 µg/mL	> 100 µg/mL	MIC (organism code UU): 3.1 µg/mL; MIC (organism code VV): 6.2 µg/mL; MIC (organism code WW): 8 µg/mL; MIC (organism code XX): 0.06 µg/mL; MIC (organism code YY): 0.06 µg/mL; MIC (organism code ZZ): 16 µg/mL; MIC (organism code ZZA): 1 µg/mL
C=C(C#CCO[C@@]1(C)C[C@@H](C)C(=O)[C@H](C)[C@H]2NC(=O)O[C@]2(C)[C@@H](CC)OC(=O)[C@H](C)C(=O)[C@H](C)[C@H]1O[C@@H]1O[C@H](C)C[C@H](N(C)C)[C@H]1O)c1ccccc1 [Example 257, Compound of Formula (IX): L is CO, T is NH, R is —CH2—C≡C-(1-phenylethenyl)]	0.2 µg/mL	0.2 µg/mL	> 100 µg/mL	0.2 µg/mL	0.2 µg/mL	0.2 µg/mL	> 100 µg/mL	0.2 µg/mL	0.1 µg/mL	0.01 µg/mL	0.05 µg/mL	0.01 µg/mL	100 µg/mL	0.2 µg/mL	0.05 µg/mL	0.2 µg/mL	> 100 µg/mL	0.78 µg/mL	> 100 µg/mL	> 100 µg/mL	MIC (organism code UU): 0.39 µg/mL; MIC (organism code VV): 0.2 µg/mL; MIC (organism code WW): 8 µg/mL; MIC (organism code XX): 0.125 µg/mL; MIC (organism code YY): 0.125 µg/mL; MIC (organism code ZZ): 128 µg/mL; MIC (organism code ZZA): 0.5 µg/mL
CC[C@H]1OC(=O)[C@H](C)C(=O)[C@H](C)[C@@H](O[C@@H]2O[C@H](C)C[C@H](N(C)C)[C@H]2O)[C@@](C)(OCC(=O)c2ccccc2)C[C@@H](C)C(=O)[C@H](C)[C@H]2NC(=O)O[C@@]21C [Example 239, Compound of Formula (IX): L is CO, T is NH, R is —CH2C(O)-phenyl]	6.2 µg/mL	6.2 µg/mL	> 100 µg/mL	6.2 µg/mL	6.2 µg/mL	6.2 µg/mL	> 100 µg/mL	6.2 µg/mL	1.56 µg/mL	0.39 µg/mL	0.39 µg/mL	0.39 µg/mL	> 100 µg/mL	1.56 µg/mL	0.39 µg/mL	1.56 µg/mL	> 100 µg/mL	6.1 µg/mL	> 100 µg/mL	> 100 µg/mL	MIC (organism code UU): 50 µg/mL; MIC (organism code VV): 3.1 µg/mL; MIC (organism code WW): 64 µg/mL; MIC (organism code XX): 0.25 µg/mL; MIC (organism code YY): 0.25 µg/mL; MIC (organism code ZZ): > 128 µg/mL; MIC (organism code ZZA): 1 µg/mL
CC[C@H]1OC(=O)[C@H](C)C(=O)[C@H](C)[C@@H](O[C@@H]2O[C@H](C)C[C@H](N(C)C)[C@H]2O)[C@@](C)(OCCNOCc2ccccc2)C[C@@H](C)C(=O)[C@H](C)[C@H]2NC(=O)O[C@@]21C [Example 237, Compound of Formula (IX): L is CO, T is NH, R is —CH2CH2NHOCH2(phenyl)]	0.39 µg/mL	0.39 µg/mL	> 100 µg/mL	0.39 µg/mL	0.39 µg/mL	0.39 µg/mL	> 100 µg/mL	0.39 µg/mL	0.1 µg/mL	0.05 µg/mL	0.05 µg/mL	0.05 µg/mL	> 100 µg/mL	0.2 µg/mL	0.05 µg/mL	0.39 µg/mL	> 100 µg/mL	0.39 µg/mL	> 100 µg/mL	> 100 µg/mL	MIC (organism code UU): 0.78 µg/mL; MIC (organism code VV): 0.39 µg/mL; MIC (organism code WW): 16 µg/mL; MIC (organism code XX): 0.03 µg/mL; MIC (organism code YY): 0.03 µg/mL; MIC (organism code ZZ): > 128 µg/mL; MIC (organism code ZZA): 0.05 µg/mL
CCC1OC(=O)C(C)C(=O)C(C)C(OC2OC(C)CC(N(C)C)C2O)C(C)(OCC=Cc2ccc(C)c3ccccc23)CC(C)C(=O)C(C)C2NC(=O)OC12C (stereo not drawn) [Example 276, Compound of Formula (IX): L is CO, T is NH2, R is —CH2CH═CH-(4-methylnaphthyl)]	0.39 µg/mL	0.78 µg/mL	50 µg/mL	0.39 µg/mL	0.78 µg/mL	0.78 µg/mL	25 µg/mL	0.78 µg/mL	0.2 µg/mL	0.02 µg/mL	0.1 µg/mL	0.02 µg/mL	25 µg/mL	0.39 µg/mL	0.1 µg/mL	0.39 µg/mL	> 100 µg/mL	6.2 µg/mL	> 100 µg/mL	> 100 µg/mL	MIC (organism code UU): 0.78 µg/mL; MIC (organism code VV): 1.56 µg/mL; MIC (organism code WW): 8 µg/mL; MIC (organism code XX): 0.125 µg/mL; MIC (organism code YY): 0.125 µg/mL; MIC (organism code ZZ): 16 µg/mL; MIC (organism code ZZA): 0.5 µg/mL
CC[C@H]1OC(=O)[C@H](C)C(=O)[C@H](C)[C@@H](O[C@@H]2O[C@H](C)C[C@H](N(C)C)[C@H]2O)[C@@](C)(OCC#Cc2ccc3cc(OC)ccc3c2)C[C@@H](C)C(=O)[C@H](C)[C@H]2NC(=O)O[C@@]21C [Example 252, Compound of Formula (IX): L is CO, T is NH, R is —CH2—C≡C-(6-methoxy-2-naphthyl)]	0.1 µg/mL	0.1 µg/mL	> 100 µg/mL	0.1 µg/mL	0.1 µg/mL	0.1 µg/mL	> 100 µg/mL	0.1 µg/mL	0.05 µg/mL	0.002 µg/mL	0.02 µg/mL	0.05 µg/mL	3.1 µg/mL	0.1 µg/mL	0.02 µg/mL	0.2 µg/mL	> 100 µg/mL	0.78 µg/mL	> 100 µg/mL	> 100 µg/mL	MIC (organism code UU): 0.2 µg/mL; MIC (organism code VV): 0.05 µg/mL; MIC (organism code WW): 2 µg/mL; MIC (organism code XX): 0.03 µg/mL; MIC (organism code YY): 0.03 µg/mL; MIC (organism code ZZ): 4 µg/mL; MIC (organism code ZZA): 0.25 µg/mL
CC[C@H]1OC(=O)[C@H](C)C(=O)[C@H](C)[C@@H](O[C@@H]2O[C@H](C)C[C@H](N(C)C)[C@H]2O)[C@@](C)(OCC=NOCc2ccnc3ccccc23)C[C@@H](C)C(=O)[C@H](C)[C@H]2NC(=O)O[C@@]21C [Example 231, Compound of Formula (IX): L is CO, T is NH, R is —CH2CH═NOCH2(4-quinolyl)]	0.1 µg/mL	0.1 µg/mL	> 100 µg/mL	0.1 µg/mL	0.1 µg/mL	0.05 µg/mL	> 100 µg/mL	0.2 µg/mL	0.02 µg/mL	0.02 µg/mL	0.02 µg/mL	0.02 µg/mL	100 µg/mL	0.1 µg/mL	0.02 µg/mL	0.1 µg/mL	100 µg/mL	0.39 µg/mL	100 µg/mL	> 100 µg/mL	MIC (organism code UU): 0.78 µg/mL; MIC (organism code VV): 0.05 µg/mL; MIC (organism code WW): 2 µg/mL; MIC (organism code XX): 0.03 µg/mL; MIC (organism code YY): 0.03 µg/mL; MIC (organism code ZZ): > 128 µg/mL; MIC (organism code ZZA): 0.5 µg/mL

Reference: USRE39591E1, “6-O-substituted ketolides having antibacterial activity” (Abbott Laboratories, priority 1996, dated 2007)
